In US20220331303A1, “USE OF AN OREXIN 2 RECEPTOR AGONIST FOR THE TREATMENT OF EXCESSIVE SLEEPINESS” (Takeda Pharmaceutical Company Limited, priority 2019, published 2022):

Tested on: sleep-deprived healthy volunteers
Assay: Polysomnography (PSG) of recovery sleep after sleep deprivation in healthy volunteers
Assay type: in vivo, human
Method: Exploratory objectives in sleep-deprived healthy volunteers were as follows: • 1. To compare the effects of Compound A (LD and HD) and modafinil (300 mg) on promoting wakefulness as measured by MWT. • 2. To determine PK-PD relationships for selected PD measures. • 3. To evaluate PK-BP relationships in BP change after Compound A administration. • 4. To compare various polysomnography (PSG) parameters between Day −1 (predose) and Day 2 (recovery sleep). • 5. To determine whether there is any difference in the PSG parameters on Day 2 (recovery sleep) between Compound A and placebo or modafinil. • 6. To evaluate the continuous electroencephalogram (EEG) obtained during the MWTs for power spectra changes for Compound A (LD and HD) versus placebo, Compound A (LD and HD) versus modafinil, and modafinil versus placebo.
During the day before dosing on Day 1, participants were administered the KSS at scheduled timepoints. A practice MWT session was performed on Day 1 treatment period 1 (only once during the entire study) to familiarize subjects with the procedures. Study drug was administered in the clinic in the evening on Day 1 of each treatment period. Subjects underwent the MWT and KSS at specified timepoints after the start of the infusion. Subjects were required to stay awake between the MWT tests. Following completion of the IV infusion on Day 2, subjects underwent an additional MWT test. When the final MWT test and cognitive testing were completed, subjects were allowed to sleep (recovery sleep) for approximately 6 hours. PSG recording was collected during this time. Subjects were discharged from the unit after completion on Day 2 with continuing actigraphy upon discharge (to begin on Day −6 before the next treatment period). The interval between each subsequent treatment period was at least 7 days to ensure that the subject's circadian rhythm had returned to a normal cycle. Subject's vital signs, including BP, were monitored during the dosing and testing period. Blood samples for determination of Compound A plasma concentrations were collected at specified timepoints on Days 1 and 2 of each treatment period. Subjects completed the Columbia-Suicide Severity Rating Scale (C-SSRS) during screening, before study drug administration, and before discharge on Day 2 of each treatment period.
The PSGs assess recovery sleep during the day after the end of the sleep deprivation period. There were no corrections for multiple comparisons. […]

[1] = Compound A 112 mg, recovery sleep
[2] = HD: Compound A 112 mg, recovery sleep

**Q.** What does the source list for `COC(=O)N1CCC[C@H](NS(C)(=O)=O)[C@@H]1CO[C@H]1CC[C@@H](c2ccccc2)CC1` [Compound A, methyl (2R,3S)-3-((methylsulfonyl)amino)-2-(((cis-4-phenylcyclohexyl)oxy)methyl)piperidine-1-carboxylate]?
**A.** PSG N2 latency, LS mean difference vs placebo (Compound A 44 mg, recovery sleep): -2.74 min; PSG REM latency, LS mean difference vs placebo [1]: 29.64 min; PSG stage REM %, LS mean difference vs placebo [1]: −5.66%; PSG stage REM duration, LS mean difference vs placebo [1]: -19.73 min; Stage N3 Duration LS Mean (HD: Compound A 112 mg): 87.23 min; Stage N3 Duration LS Mean Difference vs placebo Estimate (HD: Compound A 112 mg): 5.85 min; Stage REM % LS Mean (HD: Compound A 112 mg): 15.72%; Stage REM % LS Mean Difference vs placebo Estimate (HD: Compound A 112 mg): −5.66%; Stage REM Duration LS Mean (HD: Compound A 112 mg): 46.83 min; Stage REM Duration LS Mean Difference vs placebo Estimate (HD: Compound A 112 mg): -19.73 min; Stage Wake % LS Mean (HD: Compound A 112 mg): 11.14%; Stage Wake % LS Mean Difference vs placebo Estimate (HD: Compound A 112 mg): 0.84%; Stage Wake Duration LS Mean (HD: Compound A 112 mg): 36.46 min; Stage Wake Duration LS Mean Difference vs placebo Estimate (HD: Compound A 112 mg): 0.93 min; Total Arousal Index LS Mean (HD: Compound A 112 mg): 9.18; Total Arousal Index LS Mean Difference vs placebo Estimate (HD: Compound A 112 mg): −0.81; Total Arousal LS Mean (HD: Compound A 112 mg): 46.54; Total Arousal LS Mean Difference vs placebo Estimate (HD: Compound A 112 mg): −3.87; Total Leg Movements LS Mean (HD: Compound A 112 mg): 16.94; Total Leg Movements LS Mean Difference vs placebo Estimate (HD: Compound A 112 mg): −2.01; Total Leg Movements N1 LS Mean (HD: Compound A 112 mg): 1.41; Total Leg Movements N1 LS Mean Difference vs placebo Estimate (HD: Compound A 112 mg): 0.15; Total Leg Movements N2 LS Mean (HD: Compound A 112 mg): 7.59; Total Leg Movements N2 LS Mean Difference vs placebo Estimate (HD: Compound A 112 mg): −0.95; Total Leg Movements N3 LS Mean (HD: Compound A 112 mg): 2.72; Total Leg Movements N3 LS Mean Difference vs placebo Estimate (HD: Compound A 112 mg): 1.09; Total Leg Movements REM LS Mean (HD: Compound A 112 mg): 4.18; Total Leg Movements REM LS Mean Difference vs placebo Estimate (HD: Compound A 112 mg): −1.57; Total Leg Movements with Awakening LS Mean (HD: Compound A 112 mg): 0.84; Total Leg Movements with Awakening LS Mean Difference vs placebo Estimate (HD: Compound A 112 mg): −0.91; Total Leg Movements with Microarous LS Mean (HD: Compound A 112 mg): 2.14; Total Leg Movements with Microarous LS Mean Difference vs placebo Estimate (HD: Compound A 112 mg): 0.13; Total Leg Movements with Resp Event LS Mean (HD: Compound A 112 mg): 0.06; Total Leg Movements with Resp Event LS Mean Difference vs placebo Estimate (HD: Compound A 112 mg): 0.01; Total Leg Movements without Arousal LS Mean (HD: Compound A 112 mg): 14.77; Total Leg Movements without Arousal LS Mean Difference vs placebo Estimate (HD: Compound A 112 mg): −2.15; Total Recording Time LS Mean (HD: Compound A 112 mg): 351.06 min; Total Recording Time LS Mean Difference vs placebo Estimate (HD: Compound A 112 mg): -5.85 min; Total Sleep Time LS Mean (HD: Compound A 112 mg): 298.98 min; Total Sleep Time LS Mean Difference vs Placebo Estimate (HD: Compound A 112 mg): -10.49 min; Wake After Persistent Sleep LS Mean (HD: Compound A 112 mg): 35.95 min; Wake After Persistent Sleep LS Mean Difference vs placebo Estimate (HD: Compound A 112 mg): 1.33 min; Wake After Sleep Onset LS Mean (HD: Compound A 112 mg): 36.46 min; Wake After Sleep Onset LS Mean Difference vs placebo Estimate (HD: Compound A 112 mg): 0.93 min; PSG Awakenings LS Mean [2]: 5.71; PSG Awakenings LS Mean Difference vs Placebo Estimate [2]: 1.22; PSG N1 Latency LS Mean [2]: 2.89 min; PSG N1 Latency LS Mean Difference vs Placebo Estimate [2]: -2.47 min; PSG N2 Latency LS Mean [2]: 4.72 min; PSG N2 Latency LS Mean Difference vs Placebo Estimate [2]: -1.93 min; PSG N3 Latency LS Mean [2]: 15.83 min; PSG N3 Latency LS Mean Difference vs Placebo Estimate [2]: -11.45 min; PSG Per. Slp LS Mean [2]: 4.50 min; PSG Per. Slp LS Mean Difference vs Placebo Estimate [2]: -2.37 min; PSG REM Latency LS Mean [2]: 84.57 min; PSG REM Latency LS Mean Difference vs Placebo Estimate [2]: 29.64 min; PSG Sleep Efficiency LS Mean [2]: 84.65%; PSG Sleep Efficiency LS Mean Difference vs Placebo Estimate [2]: −2.06%; PSG Sleep Onset LS Mean [2]: 2.94 min; PSG Sleep Onset LS Mean Difference vs Placebo Estimate [2]: -1.04 min; PSG Spontaneous Arousal Index LS Mean [2]: 8.26; PSG Spontaneous Arousal Index LS Mean Difference vs Placebo Estimate [2]: −0.67; PSG Spontaneous Arousal LS Mean [2]: 41.46; PSG Spontaneous Arousal LS Mean Difference vs Placebo Estimate [2]: −3.61; PSG Stage N1 % LS Mean [2]: 6.08%; PSG Stage N1 % LS Mean Difference vs Placebo Estimate [2]: 0.00%; PSG Stage N1 Duration LS Mean [2]: 18.05 min; PSG Stage N1 Duration LS Mean Difference vs Placebo Estimate [2]: -0.35 min; PSG Stage N2 % LS Mean [2]: 48.93%; PSG Stage N2 % LS Mean Difference vs Placebo Estimate [2]: 2.22%; PSG Stage N2 Duration LS Mean [2]: 147.83 min; PSG Stage N2 Duration LS Mean Difference vs Placebo Estimate [2]: 3.76 min
